{"source": "patent US8513264B2", "about": "“Combination therapy for the treatment of diabetes and related conditions” (Boehringer Ingelheim International GmbH, priority 2008, dated 2013)", "key": {"[1]": {"system": "Zucker Diabetic Fatty (ZDF) rats (ZDF/Crl-Lepr^fa)", "assay": "Oral glucose tolerance test in overnight fasted 15-weeks old male ZDF rats (highly insulin-resistant model)", "type": "in vivo, rat", "conditions": "15-weeks old ZDF rats; single oral dose 3 mg/kg 30 min before glucose load 2 g/kg; versus vehicle control", "procedure": "According to a second example an oral glucose tolerance test is performed in overnight fasted 15-weeks old male Zucker Diabetic Fatty (ZDF) rats (ZDF/Crl-Lepr^fa). This aged ZDF rats serve as a highly insulin-resistant animal model. A pre-dose blood sample is obtained by tail bleed. Blood glucose is measured with a glucometer, and the animals are randomized for blood glucose (n=5/group). […] The animals receive an oral glucose load (2 g/kg) 30 min after compound administration. Blood glucose is measured in tail blood 30 min, 60 min, 90 min, 120 min, and 180 min after the glucose challenge. Glucose excursion is quantified by calculating the reactive glucose AUC. The data are presented as mean±SEM. The two-sided unpaired Student t-test is used for statistical comparison of the control group and the active groups as well as between active groups."}, "[2]": {"assay": "Excretion route at therapeutic oral dose levels", "type": "in vivo", "conditions": "mainly excreted via the liver"}, "[3]": {"system": "Zucker Diabetic Fatty (ZDF) rats (ZDF/Crl-Lepr^fa)", "assay": "Oral glucose tolerance test in overnight fasted 9-weeks old male ZDF rats", "type": "in vivo, rat", "conditions": "9-weeks old ZDF rats; single oral dose 3 mg/kg 30 min before glucose load 2 g/kg; versus vehicle control", "procedure": "According to a first example an oral glucose tolerance test is performed in overnight fasted 9-weeks old male Zucker Diabetic Fatty (ZDF) rats (ZDF/Crl-Lepr^fa). A pre-dose blood sample is obtained by tail bleed. Blood glucose is measured with a glucometer, and the animals are randomized for blood glucose (n=5/group). […] The animals receive an oral glucose load (2 g/kg) 30 min after compound administration. Blood glucose is measured in tail blood 15 min, 30 min, 60 min, and 90 min after the glucose challenge. Glucose excursion is quantified by calculating the reactive glucose AUC. The data are presented as mean±SEM. The two-sided unpaired Student t-test is used for statistical comparison of the control group and the active groups as well as between active groups."}}, "data": [{"smiles": "CC#CCn1c(N2CCC[C@@H](N)C2)nc2c1c(=O)n(Cc1nc(C)c3ccccc3n1)c(=O)n2C", "note": "[Cpd. A, 1-[(4-methyl-quinazolin-2-yl)methyl]-3-methyl-7-(2-butyn-1-yl)-8-(3-(R)-amino-piperidin-1-yl)-xanthine]", "values": [{"measurement": "reduction of glucose excursion (reactive glucose AUC)", "setting": "[1]", "result": 1, "unit": "%"}, {"measurement": "excretion via the kidney", "setting": "[2]", "result": "< 7 % of the administered oral dose"}, {"measurement": "reduction of glucose excursion (reactive glucose AUC)", "setting": "[3]", "result": 49, "unit": "%"}]}]}
